Values of other authors as cited in patent US20220323445A1, “REDUCING IMMUNOGENICITY TO PEGLOTICASE” (Horizon Therapeutics Ireland DAC, priority 2020, published 2022).

Tests used:
[1] = patients treated with allopurinol; cited from earlier work
[2] = prophylaxis of gout; cited from earlier work

Compound	patients who develop allergic reactions [1]	severe hypersensitivity syndrome [1]	pharyngolaryngeal pain [2]
Oc1ncnc2[nH]ncc12 [allopurinol]	Approximately 2%	about 0.4%	
COc1cc2c(c(OC)c1OC)-c1ccc(OC)c(=O)cc1[C@@H](NC(C)=O)CC2 [colchicine]			3%
